The source of these data is PubChem BioAssay (NCI).

SMILES strings stand for the structures. “And” between values parts separate entries of the source, which are not always exact repeats. Equal values may be shown once.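 Protocol summary: plate cells (96-well), add compound at 5 concentrations, incubate 48 h, interpolate endpoints linearly. GI50 = concentration required for 50% inhibition of growth. The concentration for full growth arrest is given as TGI.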 A value given as a limit tells only on which side of the number the result lay.

Holding throughout (experiment): NCI-60 cell line screen, 48 h
The subject of test [1] is HCC-2998 colon.
Test [2] has as its system MCF7 breast.
Test [3] has as its system SK-MEL-5 melanoma.
Test [4] has as its system MDA-MB-435.
In test [5] the test system is UO-31 renal.
The subject of test [6] is SR leukemia.
Test [7] deals with UACC-257 melanoma.
Test [8] deals with SK-OV-3 ovarian.
Test [9] has as its system NCI-H522 lung.
Test [10] has as its system TK-10 renal.

With `O=C(CNc1ncco1)Nc1ccc(S(=O)(=O)c2ccc(NC(=O)CNc3ncco3)cc2)cc1`, the GI50 is 3.44 µM in test [1]; 1.34 µM in [2]; 1.52 µM in test [3]; 2.08 µM in test [4]; 3.03 µM in test [5]; 2.36 µM in test [6]. Moreover, the GI50 in test [7] was 1.85 µM; in test [8] it was 10.5 µM; in test [9] it was 1.48 µM; in test [10], 11.7 µM. For the same molecule, the TGI in test [1] amounted to 16.4 µM; in test [2], 5.66 µM; in [3] it was 2.88 µM; in [4] it was 7.26 µM; in [5] it was 17.3 µM; in test [6], 5.35 µM. Also, the TGI was 4.86 µM in [7], 24.1 µM in test [8], 3.14 µM in test [9] and 25 µM in [10].

Turning to `NC(=S)N/N=C\c1nccc2c(N)cccc12`, the GI50 in [1] is 0.374 µM; in [2], 0.218 µM; in [3], 0.324 µM; in [4] it was 0.379 µM; in test [5], 0.298 µM; in test [6], 0.0398 µM. Besides, the GI50 in test [7] is 0.624 µM; in test [8], 0.541 µM; in test [9], 0.178 µM; in test [10] it was 0.961 µM. Moreover, the TGI in [1] was above 100 µM; in test [3] it was 4.01 µM; in test [4], above 100 µM; in test [5], 1.24 µM; in test [6] it was above 35.8 µM; in test [7] it was 9.44 µM. Besides, the values for the TGI in test [8], in test [9] and in test [10] were above 100 µM, 0.509 µM and above 100 µM, respectively.

Consider `O=C1C(=O)c2ccccc2C(O)=C1CC=C(Cl)Cl`, for which the GI50 was 15.3 µM and 13.8 µM in [1]; 5.15 µM and 4.73 µM in [2]; 3.54 µM in [3]; 5.7 µM and 7.43 µM in test [4]; 15.8 µM and 7.26 µM in test [5]; 0.924 µM and 4.89 µM in test [6]. Also, the GI50 in test [8] was 15.1 µM and 16.1 µM; in test [9], 8.02 µM; in [10] it was 25.7 µM and 20.7 µM. The TGI was > 80.9 µM and 133 µM and > 100 µM in test [1]; > 58.5 µM and 131 µM and > 100 µM in [2]; 22.6 µM and 43 µM and 21.6 µM in [3]; 29.2 µM and 109 µM and 80.6 µM in [4]; 81.2 µM and 101 µM and > 100 µM in test [5]; > 91.1 µM and 156 µM and > 100 µM in test [6]. Further, the TGI in test [7] was 58.2 µM and 65.8 µM and 65.3 µM; in test [8], 50.2 µM and 149 µM and > 100 µM; in [9], 40.5 µM and 117 µM and 89.8 µM; in test [10], 98.6 µM and 195 µM and > 100 µM.

With `C(=C\c1nccc2c1[nH]c1ccccc12)/c1ccccc1`, the GI50 was 2.96 µM in test [1]; 2.15 µM in test [2]; 2.27 µM in test [3]; 0.356 µM in test [4]; 1.58 µM in [5]; 1.11 µM in test [6]. For the same molecule, the GI50 in test [7] was 17.8 µM; in test [8] it was 2.97 µM; in [9], 2.38 µM; in [10] it was 6.58 µM. Further, the TGI in test [1] is 9.43 µM; in [2], 23 µM; in test [3], 8.05 µM; in test [4] it was 1.81 µM; in test [5], 17.4 µM; in [6] it was 6.84 µM. For the same molecule, the TGI was 76.7 µM in [7], 13.4 µM in [8], 7.94 µM in test [9] and 25.5 µM in test [10].

With `COc1cc(C2=NN(c3ccc(S(N)(=O)=O)cc3)C(c3ccc(Cl)cc3)C2)cc(OC)c1OC` (stereo unspecified), the GI50 in test [1] was 6.93 µM; in [2] it was 3.36 µM; in test [3], 3.35 µM; in test [4], 3.74 µM; in [5], 2.5 µM; in test [6] it was 4.37 µM. Further, the GI50 in test [7] was 9.5 µM; in test [8] it was 6.91 µM; in test [9], 3.03 µM; in test [10], 3.27 µM. Also, the TGI in test [1] was above 100 µM; in [2], above 100 µM; in test [3] it was 18 µM; in test [4], above 100 µM; in test [5], above 100 µM; in test [6], above 100 µM. For the same molecule, the TGI in test [7], in test [8], in test [9] and in test [10] was above 100 µM each time.

`COc1ccc(CC(NC(=O)[C@H](C)NC(=O)CN2CCOCC2)C(=O)N[C@@H](Cc2ccccc2)C(=O)[C@@]2(C)CO2)cc1` (stereo partly specified): the GI50 in test [1] was 0.174 µM; in test [2], 0.129 µM; in test [3] it was 0.177 µM; in test [4] it was 0.069 µM; in [5], 3.2 µM; in [6], 0.064 µM. In addition, the GI50 in [7] is 0.296 µM; in test [8] it was 0.392 µM; in test [9], 0.278 µM; in test [10] it was 0.47 µM. Also, the TGI in [1] was 0.324 µM; in [2], above 41.6 µM; in test [3], 0.379 µM; in test [4], 0.484 µM; in test [5], 15.2 µM; in [8] it was 1.77 µM. Moreover, the TGI in test [9] is 0.908 µM; in test [10] it was 4.93 µM.

Take `COc1cc(NCc2ccccc2O)c2ncccc2c1`: the GI50 in test [1] was 42.6 µM; in test [2], 24.4 µM; in [3], 10.1 µM; in test [4], 11.6 µM; in test [5], 7.17 µM; in test [6], 5.91 µM. The GI50 is 19.5 µM in [7], 20.2 µM in test [8], 10.1 µM in [9] and 26.5 µM in test [10]. Also, the TGI was above 100 µM in [1]; above 100 µM in test [2]; 23.4 µM in [3]; 37.9 µM in test [4]; 75.8 µM in test [5]; 58.3 µM in test [6]. For the same molecule, the TGI in [7] is 70.7 µM; in test [8], 50 µM; in test [9], 43 µM; in test [10] it was above 100 µM.

Turning to `CCc1c(O)c2c(c(O)c1C(C)=O)C(=O)c1c(cc(O)c(C(=O)O)c1C(=O)O)C2=O`, the TGI in test [1], in test [2], in test [3], in test [4], in test [5] and in test [6] was above 100 µM each time. Also, the TGI in [7], in [8], in test [9] and in [10] was above 100 µM each time.
